Each structure is given as a SMILES string. Where two headings read alike, the source gives them in different places.

In one data set the target is wild type (WT) pfDHFR (Plasmodium falciparum, UniProt P13922, N108S/R59C). Briefly: Inhibition of wild type pfDHFR (Ki). The class given is biochemical. The protocol: (§1) The synthesized 2,4-diamino-6-ethylpyrimdine derivatives as the hydrochloride salts were tested for the activities against Plasmodium falciparum (P. falciparum) according to the standard methods. These include the inhibition of dihydrofolate reductase (DHFR) enzymes of P. falciparum including, wild type (WT) and quadruple mutants (N51IC59RS108NI164L) (QM). The inhibition was expressed as inhibition constants (Ki) in nano molar (nM).
wild type (WT) pfDHFR, sequence (P13922 whole entry R59C/N108S): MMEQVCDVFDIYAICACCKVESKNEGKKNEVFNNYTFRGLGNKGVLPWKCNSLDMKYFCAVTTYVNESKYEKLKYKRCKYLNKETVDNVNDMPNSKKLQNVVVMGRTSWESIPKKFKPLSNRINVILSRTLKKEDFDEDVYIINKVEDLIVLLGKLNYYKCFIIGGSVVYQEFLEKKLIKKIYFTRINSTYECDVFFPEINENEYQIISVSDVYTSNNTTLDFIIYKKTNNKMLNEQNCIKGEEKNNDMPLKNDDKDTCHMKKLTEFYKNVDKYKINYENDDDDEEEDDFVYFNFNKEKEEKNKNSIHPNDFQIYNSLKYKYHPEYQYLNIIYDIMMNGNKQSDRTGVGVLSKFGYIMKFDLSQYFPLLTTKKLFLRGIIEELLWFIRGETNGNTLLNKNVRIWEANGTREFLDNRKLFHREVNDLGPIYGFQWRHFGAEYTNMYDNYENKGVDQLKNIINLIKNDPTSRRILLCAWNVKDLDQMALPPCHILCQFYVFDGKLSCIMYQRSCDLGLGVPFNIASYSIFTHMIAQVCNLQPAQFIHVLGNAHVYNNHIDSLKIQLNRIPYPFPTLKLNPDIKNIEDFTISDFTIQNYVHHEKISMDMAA

The target of data set [1] is quadruple mutant N51I + C59R + S108N + I164L (QM) pfDHFR (Plasmodium falciparum, UniProt P13922, I164L/N51I). Briefly: Inhibition of quadruple mutant pfDHFR (Ki). The class given is biochemical. The protocol: as §1
quadruple mutant N51I + C59R + S108N + I164L (QM) pfDHFR, sequence (P13922 whole entry N51I/I164L): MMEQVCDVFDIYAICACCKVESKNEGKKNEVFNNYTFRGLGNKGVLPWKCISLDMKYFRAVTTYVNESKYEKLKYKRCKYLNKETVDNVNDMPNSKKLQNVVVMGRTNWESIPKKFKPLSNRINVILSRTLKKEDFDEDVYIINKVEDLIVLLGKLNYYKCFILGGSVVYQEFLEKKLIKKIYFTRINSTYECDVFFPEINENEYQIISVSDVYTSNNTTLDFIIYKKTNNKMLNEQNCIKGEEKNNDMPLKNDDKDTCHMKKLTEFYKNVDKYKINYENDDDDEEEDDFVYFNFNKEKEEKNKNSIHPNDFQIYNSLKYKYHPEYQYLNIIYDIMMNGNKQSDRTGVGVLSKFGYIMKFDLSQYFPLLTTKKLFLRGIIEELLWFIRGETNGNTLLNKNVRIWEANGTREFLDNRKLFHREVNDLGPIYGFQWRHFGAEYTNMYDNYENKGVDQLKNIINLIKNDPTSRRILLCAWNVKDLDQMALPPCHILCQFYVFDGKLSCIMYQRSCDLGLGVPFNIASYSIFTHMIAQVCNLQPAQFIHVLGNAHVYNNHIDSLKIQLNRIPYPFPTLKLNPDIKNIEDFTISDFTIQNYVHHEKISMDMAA
The target of data set [2] is T1, Human dihydrofolate reductase (hDHFR) (Homo sapiens, UniProt P00374).
T1 sequence (P00374 1-187): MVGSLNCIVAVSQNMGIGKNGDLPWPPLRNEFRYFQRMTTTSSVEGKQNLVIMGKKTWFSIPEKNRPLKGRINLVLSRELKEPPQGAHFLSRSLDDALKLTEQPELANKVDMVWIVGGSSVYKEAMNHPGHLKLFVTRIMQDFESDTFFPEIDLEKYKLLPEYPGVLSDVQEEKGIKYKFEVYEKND
The data set can be described thus: Inhibition of human dihydrofolate reductase (Ki). The class given is biochemical. As to conditions: human DHFR; hydrochloride salts.

The test system of data set [3] is P. falciparum TM4/8.2 (wild type). Briefly: microbe, parasite or virus in culture. The class given is cell-based, Plasmodium falciparum. As to conditions: Plasmodium falciparum, read-out: IC50 P. falciparum TM4/8.2 (WT). The text has this: (§2) In Vitro Antimalarial Activites Against P. falciparum and Cytotoxicity Towards Mammalian Cells (Vero Cells)
In data set [4] the test system is P. falciparum V1/S (N51I + C59R + S108 + I164L). Briefly: microbe, parasite or virus in culture. The class given is cell-based, Plasmodium falciparum. Particulars: Plasmodium falciparum, read-out: IC50 P. falciparum V1/S.
Description: as §2

A short description of the next data set: in vitro. Particulars: African green monkey.
Description: as §2

Where [5] appears, read: in vitro, wild-type strain TM4/8.2.
Where [6] appears, read: in vitro, quadruple mutant strain V1/S.

Broadly, the Ki is a dissociation constant, usually derived from enzyme kinetics or from competition with a known ligand. As to `CCc1nc(N)nc(N)c1OCCCc1cc(-c2cccc(C(F)(F)F)c2)no1` [Compound 46], the Ki on wild type (WT) pfDHFR was 0.39 ± 0.03 nM; in data set [1], 1.74 ± 0.14 nM; in data set [2] it was 26.12 ± 0.24 nM. The IC50 in data set [3] was determined as 130 ± 40 nM; in data set [4], 17700 ± 4740 nM; in “in vitro” it was 10500 nM.
In the case of `CCc1nc(N)nc(N)c1OCc1cc(-c2ccc(Br)cc2)no1` [Compound 36], the Ki at wild type (WT) pfDHFR is 1.03 ± 0.2 nM; in data set [1], 64.6 ± 1.16 nM; in data set [2] it was 1350 ± 104 nM. For the same compound, the results for the IC50 (in data set [3] (setting [5]); in data set [4] (setting [6]); in “in vitro”) were 2860 ± 560 nM, 17500 ± 2960 nM and greater than 25000 nM, respectively.
Turning to `CCc1nc(N)nc(N)c1OCc1cc(-c2cccc(C(F)(F)F)c2)no1` [Compound 37], the Ki on wild type (WT) pfDHFR was 2.12 ± 0.18 nM; in data set [1], 106 ± 17.3 nM; in data set [2], greater than 100000 nM. In addition, the IC50 in data set [3] (setting [5]) turned out to be 3260 ± 810 nM; in data set [4] (setting [6]), 20200 ± 1370 nM; in the data set “in vitro”, 37100 ± 1810 nM.
Take `CCc1nc(N)nc(N)c1OCc1coc(-c2cccc(C)c2)n1` [Compound 51]: the Ki at wild type (WT) pfDHFR was 0.44 ± 0.05 nM; in data set [1], 48 ± 1.54 nM; in data set [2], 256 ± 9.25 nM. For the same compound, the IC50 in data set [3] (setting [5]) came to 830 ± 50 nM; in data set [4] (setting [6]), 21900 ± 5880 nM; in “in vitro”, 75900 ± 11000 nM.
For the compound `CCc1nc(N)nc(N)c1OCCc1cn(Cc2ccc(O)cc2)nn1` [Compound 30], the results for the Ki (at wild type (WT) pfDHFR; in data set [1]) were 8.86 ± 0.8 nM and 756 ± 62.6 nM, respectively. The “Ki hDHFR” value in data set [2] was “High”. Also, the IC50 is 12400 ± 4710 nM in data set [3] (setting [5]), greater than 50000 nM in data set [4] (setting [6]) and greater than 50000 nM in “in vitro”.
For the compound `CCc1nc(N)nc(N)c1OCc1cc(-c2ccc([N+](=O)[O-])cc2)no1` [Compound 43], the Ki is 4.02 ± 0.57 nM at wild type (WT) pfDHFR, 306 ± 36.5 nM in data set [1] and greater than 100000 nM in data set [2]. Moreover, the IC50 in data set [3] (setting [5]) was 33200 ± 14200 nM; in data set [4] (setting [6]), greater than 50000 nM; in “in vitro”, greater than 50000 nM.
For the compound `CCc1nc(N)nc(N)c1OCCCc1cn(Cc2ccc(C(=O)O)cc2)nn1` [Compound 32], the Ki on wild type (WT) pfDHFR turned out to be 0.36 ± 0.02 nM; in data set [1], 4.72 ± 0.77 nM; in data set [2] it was 54.3 ± 1.05 nM. Besides, the IC50 in data set [3] (setting [5]) was 87 ± 30 nM; in data set [4] (setting [6]) it was 3750 ± 430 nM; in the data set “in vitro”, greater than 50000 nM.
Take `CCc1nc(N)nc(N)c1OCc1cn(Cc2ccc(O)cc2)nn1` [Compound 28]: the Ki at wild type (WT) pfDHFR was determined as 53.7 ± 5.6 nM. The “Ki pfDHFR N51I + C59R + S108N + I164L (QM)” value in data set [1] (quadruple mutant pfDHFR, hydrochloride salts) was “High”. Further, in data set [2], the “Ki hDHFR” value was “High”. For the same compound, the IC50 (in data set [3] (setting [5]); in data set [4] (setting [6]); in the data set “in vitro”) was greater than 1000 nM in each case.
As to `CCc1nc(N)nc(N)c1OCc1csc(-c2ccc(OC)cc2)n1` [Compound 68], the Ki stood at 0.46 ± 0.06 nM at wild type (WT) pfDHFR, 16 ± 1.27 nM in data set [1] and 186 ± 4.66 nM in data set [2]. Moreover, the figures for the IC50 (in data set [3]; in data set [4]; in “in vitro”) were 450 ± 90 nM, 12900 ± 5710 nM and 43500 ± 13400 nM, respectively.
On to `CCc1nc(N)nc(N)c1OCCc1cn(-c2cccc(C(=O)O)c2)nn1` [Compound 20], for which the values for the Ki (at wild type (WT) pfDHFR; in data set [1]; in data set [2]) were 0.39 ± 0.06 nM, 1.73 ± 0.18 nM and 80.2 ± 3.28 nM, respectively. Also, the IC50 was 670 ± 340 nM in data set [3] (setting [5]), 1740 ± 510 nM in data set [4] (setting [6]) and greater than 25000 nM in “in vitro”.
On to `CCc1nc(N)nc(N)c1OCCCc1cn(-c2ccc(C(=O)O)cc2)nn1` [Compound 25], for which the Ki at wild type (WT) pfDHFR stood at 0.35 ± 0.04 nM; in data set [1], 3.52 ± 0.73 nM; in data set [2], 44.8 ± 1.92 nM. Also, the IC50 in data set [3] was determined as 36 ± 10 nM; in data set [4] it was 4650 ± 120 nM; in “in vitro” it was 6400 ± 1080 nM.
`CCc1nc(N)nc(N)c1OCCc1coc(-c2ccc(C(=O)O)cc2)n1` [Compound 59]: the figures for the Ki (at wild type (WT) pfDHFR; in data set [1]; in data set [2]) were 0.26 ± 0.01 nM, 1.56 ± 0.07 nM and 17.4 ± 1.14 nM, respectively. The values for the IC50 (in data set [3] (setting [5]); in data set [4] (setting [6]); in “in vitro”) were 52 ± 10 nM, greater than 10000 nM and greater than 10000 nM, respectively.
Take `CCc1nc(N)nc(N)c1OCCCc1cn(-c2ccc(C(=O)OC)cc2)nn1` [Compound 24]: the figures for the Ki (on wild type (WT) pfDHFR; in data set [1]; in data set [2]) were 0.15 ± 0.02 nM, 1.9 ± 0.08 nM and 19 ± 1.92 nM, respectively. Further, the IC50 is 55 ± 6 nM in data set [3], greater than 2000 nM in data set [4] and greater than 2000 nM in the data set “in vitro”.
